Test results taken from patent publication US20030190365A1, “Methods for wet granulating azithromycin” (Pfizer Inc., priority 2001, published 2003).

Assays:
[1] = Equilibrium solubility of azithromycin forms in granulating liquids (HPLC-UV)
Experimental: Equilibrium solubility of several different forms of azithromycin, in typical liquids used in the wet granulation process, were evaluated as follows.
Excess azithromycin was added as a solid into each respective test liquid and mixed by rotation using a Labquake Rotating Mixer® at 7 revolutions per minute (RPM). Duplicate samples were run for each condition. Excess drug material was added to achieve saturation. Once saturation was achieved, the samples were rotated for 48 hours with sampling intervals at 24 and 48 hours. Azithromycin form A was also set up for a 7-day equilibrium solubility analysis to assure equilibrium beyond 48 hours. At each sampling interval, approximately half (1 mL) the sample was transferred into a polyethylene microcentrifuge tube and centrifuged at 15,000 RPM for 20 minutes using the Eppendorf Centrifuge Model # 5403. Following centrifugation, the liquid layer was pipetted and diluted with 0.04 M potassium phosphate dibasic (pH=8): acetonitrile (4:6). Dilutions were made accordingly until the peak area fell into the linear curve range of the standards (0.15 to 1.5 mgA/mL). Samples were run by HPLC (HP-1100 system, Agilent Technologies, Wilmington, Del.) with UV detection at 210 nm. The sample data was calculated by linear regression against the standard curve based on azithromycin form A.

[2] = As-is and tapped density of bulk drug and dried granulations (Van Kel tap density tester); assay type: physicochemical
Experimental: Form F bulk drug contained soft lumps and was sieved through an 18 mesh (1.0 mm) screen before use. A small-scale granulation process, as described in Example 1, was used for samples of 5 g of bulk drug. The liquid was pipetted in 0.1 to 1.0 mL increments until a granulation was formed, based on visual observations, followed by wet mixing for 3-5 minutes. All three runs formed wet granulations, but the run with water was much less granular than the non-aqueous runs. All of the samples were dried overnight at 40° C. for 16 hours. […] The two nonaqueous liquid runs appeared to be only ˜50% granules, and the water run was only slightly granular.
Samples of the dried granules were then hand sieved through an 18 mesh screen and the density was determined, as shown above in Table 2C. SEM's were taken of dried samples both before and after sieving was done to aid in the evaluation.
A small-scale process, as described in Example 1, was used to granulate the formulations. The ingredients (except for the lubricant), to make a 10 g lot for each run, were pre-blended for 5 minutes on a Turbula Shaker-Mixer (Willy A. Bachofen AG Maschinenfabrik, Basel, Switzerland). The blend was granulated per Example 1. The liquid was pipetted in 0.1 to 1.0 mL increments and mixed for 2.5-6 minutes until a granulation was formed. All of the samples were dried overnight at 40° C. for 16 hours. The amount of densification varied depending on the excipients used in the formulation. […] Tablets were not made from these four granulation runs because of the poor quality.
A small-scale process, as described in Example 1, was used to granulate the formulations into 10 g lots. The liquid was pipetted in 0.1 to 1.0 mL increments and mixed for 2-5 minutes until a granulation was formed. All of the samples were dried overnight at 40° C. for 16 hours in a forced hot air oven and then hand sieved through a 18 mesh (1.0 mm) screen.
A small-scale process, as described in Example 1, was used to granulate the formulations. The granulating liquid was pipetted in 0.1 to 1.0 mL increments and mixed with the 9.3 g of the dry blend for 3-6 minutes until a granulation was formed. The granulating amount, of 30, 27 and 29%, was used for the PVP granulating liquid in ethanol, water and 50:50 ethanol:water, respectively. The amount of liquid used was 2.5-3 mL, therefore the amount of solid (PVP) added in solution based on the 10 g final batch size was from about 0.25 to 0.3%. All of the samples were dried overnight at 40° C. for 16 hours and then hand sieved through a 16 mesh (1.2 mm) screen.
A small-scale process, as described in Example 1, was used to granulate the formulations to make 10 g lots. Each formulation was pre-blended for 5 minutes on a Turbula Shaker-Mixer (Willy A. Bachofen AG Maschinenfabrik, Basel, Switzerland) for 5 minutes. The blend was then granulated as described in Example 1. The liquid was pipetted in 0.1 to 1.0 mL increments and mixed for 4-8 minutes until a granulation was formed. All of the samples were dried overnight at 40° C. for 16 hours and then hand sieved through a 16 mesh (1.2mm) screen. The densities of the granulations were then compared to the bulk drug and to each other. The amount of densification varied depending on the components used in the formulation.

[3] = 24 hours, EtOH 33% in water v/v
[4] = 24 hours, EtOH 67% in water v/v
[5] = 48 hours, EtOH 33% in water v/v
[6] = 48 hours, EtOH 67% in water v/v

SMILES	solubility [1, 3] [mgA/mL]	solubility [1, 4] [mgA/mL]	solubility ([1]; 24 hours, EtOH 100% neat) [mgA/mL]	solubility ([1]; 24 hours, IPA 33% in water v/v) [mgA/mL]	solubility ([1]; 24 hours, IPA 67% in water v/v) [mgA/mL]	solubility ([1]; 24 hours, IPA 100% neat) [mgA/mL]	solubility ([1]; 24 hours, water) [mgA/mL]	solubility [1, 5] [mgA/mL]	solubility [1, 6] [mgA/mL]	solubility ([1]; 48 hours, EtOH 100% neat) [mgA/mL]	solubility ([1]; 48 hours, IPA 33% in water v/v) [mgA/mL]	solubility ([1]; 48 hours, IPA 67% in water v/v) [mgA/mL]	solubility ([1]; 48 hours, IPA 100% neat) [mgA/mL]	solubility ([1]; 48 hours, water) [mgA/mL]	As Is Density ([2]; Example 3) [g/cc]	Tapped Density ([2]; Example 3) [g/cc]	also measured
CC[C@H]1OC(=O)[C@H](C)[C@@H](O[C@H]2C[C@@](C)(OC)[C@@H](O)[C@H](C)O2)[C@H](C)[C@@H](O[C@@H]2O[C@H](C)C[C@H](N(C)C)[C@H]2O)[C@](C)(O)C[C@@H](C)CN(C)[C@H](C)[C@@H](O)[C@]1(C)O [form A, 9-deoxo-9a-aza-9a-methyl-9a-homoerythromycin A, reference compound]	1.30	27.48	219.74	5.50	68.71	291.91	0.10	1.23	27.25	211.59	5.25	67.70	280.91	0.14	–	–	solubility ([1]; 7 days, EtOH 33% in water v/v): 1.27 mgA/mL; solubility ([1]; 7 days, EtOH 67% in water v/v): 27.02 mgA/mL; solubility ([1]; 7 days, EtOH 100% neat): 214.76 mgA/mL; solubility ([1]; 7 days, IPA 33% in water v/v): 5.28 mgA/mL; solubility ([1]; 7 days, IPA 67% in water v/v): 66.63 mgA/mL; solubility ([1]; 7 days, IPA 100% neat): 286.45 mgA/mL; solubility ([1]; 7 days, water): 0.11 mgA/mL; solubility in pure water compared to all other forms ([1]; relative to the other forms): approximately one-half; solubility in the isopropanol solutions compared to all other forms ([1]; relative to the other forms): lower solubility
CCC1OC(=O)C(C)C(O[C@H]2C[C@@](C)(OC)[C@@H](O)C(C)O2)C(C)[C@@H](OC2OC(C)CC(N(C)C)[C@H]2O)[C@@](C)(O)C[C@@H](C)CN(C)[C@H](C)[C@@H](O)[C@]1(C)O (stereo partly drawn) [form F, azithromycin monohydrate hemi-ethanol solvate]	0.98	27.86	228.34	10.04	94.09	367.02	0.19	1.06	27.56	229.87	9.41	79.90	362.64	0.21	0.290	0.439	As is Density ([2]; Example 2, form F, Table 2A): 0.290 g/cc; Tapped Density ([2]; Example 2, form F, Table 2A, 2000 taps): 0.439 g/cc; As is Density ([2]; Example 2, form F, Table 2C): 0.290 g/cc; Tapped Density ([2]; Example 2, form F, Table 2C): 0.439 g/cc; As Is Density ([2]; Example 6, form F): 0.290 g/cc; Tapped Density ([2]; Example 6, form F): 0.439 g/cc; As Is Density ([2]; Example 7, form F): 0.290 g/cc; Tapped Density ([2]; Example 7, form F): 0.439 g/cc
CC[C@H]1OC(=O)[C@H](C)[C@@H](O[C@H]2C[C@@](C)(OC)[C@@H](O)[C@H](C)O2)[C@H](C)[C@@H](O[C@@H]2O[C@H](C)C[C@H](N(C)C)[C@H]2O)[C@](C)(O)C[C@@H](C)CN(C)[C@H](C)[C@@H](O)[C@]1(C)O [form G, azithromycin sesquihydrate]	–	–	–	–	–	–	–	–	–	–	–	–	–	–	–	–	As Is Density ([2]; Example 3, sesquihydrate): 0.290 g/cc; Tapped Density ([2]; Example 3, sesquihydrate): 0.450 g/cc
CCC1OC(=O)C(C)C(O[C@H]2C[C@@](C)(OC)[C@@H](O)C(C)O2)C(C)[C@@H](OC2OC(C)CC(N(C)C)[C@H]2O)[C@@](C)(O)C[C@@H](C)CN(C)[C@H](C)[C@@H](O)[C@]1(C)O (stereo partly drawn) [form J, azithromycin monohydrate hemi-n-propanol solvate]	0.95	27.15	224.77	9.81	113.05	315.94	0.18	0.99	26.30	208.99	9.40	106.51	295.88	0.22	0.377	0.649	–
CCC1OC(=O)C(C)C(O[C@H]2C[C@@](C)(OC)[C@@H](O)C(C)O2)C(C)[C@@H](OC2OC(C)CC(N(C)C)[C@H]2O)[C@@](C)(O)C[C@@H](C)CN(C)[C@H](C)[C@@H](O)[C@]1(C)O (stereo partly drawn) [form M, azithromycin monohydrate hemi-isopropanol solvate]	0.97	25.86	211.38	8.56	110.67	333.39	0.22	1.10	27.00	222.38	8.92	82.95	353.19	0.21	0.391	0.514	solubility ([1]; 72 hours, IPA 67% in water v/v): 71.35 mgA/mL; solubility ([1]; 72 hours, IPA 100% neat): 322.55 mgA/mL
CC[C@H]1OC(=O)[C@H](C)[C@@H](O[C@H]2C[C@@](C)(OC)[C@@H](O)[C@H](C)O2)[C@H](C)[C@@H](O[C@@H]2O[C@H](C)C[C@H](N(C)C)[C@H]2O)[C@](C)(O)C[C@@H](C)CN(C)[C@H](C)[C@@H](O)[C@]1(C)O [form N, azithromycin]	1.06	27.33	228.14	9.23	113.08	334.22	0.20	1.11	27.20	225.78	7.36	106.48	322.91	0.24	0.450	0.600	–
